This note sets out measurements from PMC9405955, “Plasmodium falciparum Nicotinamidase as A Novel Antimalarial Target” (Biomolecules, 2022).

Data set [1] concerns the target T1, P. falciparum nicotinamidase (PfNic) (Plasmodium falciparum, UniProt O97284).
T1 construct: gene PF3D7_0320500
T1 sequence (O97284 1-429): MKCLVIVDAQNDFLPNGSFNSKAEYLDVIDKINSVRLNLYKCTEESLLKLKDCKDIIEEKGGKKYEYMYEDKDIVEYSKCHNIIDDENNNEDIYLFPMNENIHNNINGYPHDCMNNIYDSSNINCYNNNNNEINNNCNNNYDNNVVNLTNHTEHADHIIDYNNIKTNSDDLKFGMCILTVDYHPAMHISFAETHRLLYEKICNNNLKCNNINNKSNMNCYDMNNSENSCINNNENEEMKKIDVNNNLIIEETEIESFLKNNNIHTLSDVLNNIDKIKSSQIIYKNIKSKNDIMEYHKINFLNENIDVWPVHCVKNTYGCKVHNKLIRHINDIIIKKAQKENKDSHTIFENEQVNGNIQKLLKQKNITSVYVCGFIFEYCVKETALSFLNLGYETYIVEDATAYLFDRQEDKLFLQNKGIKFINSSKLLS
As to the kind of experiment: […]-nicotinamide to nicotinic acid conversion (HPLC, scintillation counting) in lysates of parasites pre-treated with […] compound for […] h. It is filed as cell-based.

Substrate in data set [2]: NC(=O)c1cccnc1
The data set can be described thus: purified protein. Type of data set: biochemical, Plasmodium falciparum.

Regarding `Cc1cncc(C=O)c1` [5-methyl-nicotinaldehyde], the “14C-nicotinamide to nicotinic acid conversion (HPLC, scintillation counting) in” value in data set [1] was “indicating 5-Me-nicotinaldehyhde was able to inhibit P. falciparum nicotinamidase in the lysate”.

B1: P. falciparum nicotinamidase (PfNic) (Plasmodium falciparum 3D7) (protein)
chain: T1 sequence (O97284 1-429)
notes: 429 amino acids, N-terminal histidine tag (pet28a), expressed in Rosetta (DE3) E. coli
What is called Km is the substrate concentration at which the rate is half of its maximum. As for B1, the Km in data set [2] was 3.0 ± 0.9 µM.
